Assay results: publication PMC7782785, “Outer-membrane-acting peptides and lipid II-targeting antibiotics cooperatively kill Gram-negative pathogens” (Communications Biology, 2021)

Tests used:
Assay type in all cases: cell-based
[1] = tested on: K. pneumoniae ATCC700603; test: Synergy test, checkerboard broth microdilution
Description: (§1) For the synergy test, standard checkerboard broth microdilution assays were conducted to test the synergistic effect of combined antimicrobials using the same condition as before[51],[56]. […] The initial concentration of both peptides was their individual MIC. 50 µL fresh bacterial suspension prepared as above was added to the wells already containing the antimicrobial compound mixture to achieve 100 µL final volume per well.
(§2) The fractional inhibitory concentration (FIC) indices[57] were calculated using the formula FICI = FICa + FICb = MICac/MICa + MICbc/MICb, to determine whether the combination is additive, synergistic or antagonistic[51],[57]. The MICa and MICb is the MIC of compound A or B alone, respectively. MICac is the MIC of compound A in combination with compound B and MICbc is the MIC of compound B when it was combined with compound A. The FIC corresponds to the MIC of a compound in combination with the other compound, divided by the MIC of the compound alone. FICa is FIC of compound A while FICb is FIC of compound B. The FICI was interpreted according to EUCAST[58] as follows: synergistic, FICI ≤ 0.5; additive,0.5 < FICI ≤ 1; indifferent, 1 < FICI < 2; antagonistic, FICI ≥ 2.

[2] = tested on: A. baumannii ATCC BAA-1605; conditions: checkerboard
Description: as §1, §2

[3] = tested on: P. aeruginosa ATCC 27853; conditions: checkerboard
Description: as §1, §2

SMILES: CN[C@H](CC(C)C)C(=O)N[C@H]1C(=O)N[C@@H](CC(N)=O)C(=O)N[C@H]2C(=O)N[C@H]3C(=O)N[C@H](C(=O)N[C@H](C(=O)O)c4cc(O)cc(O)c4-c4cc3ccc4O)[C@H](O)c3ccc(c(Cl)c3)Oc3cc2cc(c3O[C@@H]2O[C@H](CO)[C@@H](O)[C@H](O)[C@H]2O[C@H]2C[C@](C)(N)[C@H](O)[C@H](C)O2)Oc2ccc(cc2Cl)[C@H]1O [Vancomycin]
- MICAB: MIC of vancomycin in combination with D-11 at the MICAC concentration [1]: 11.04 µM
- MICAB: MIC of vancomycin in combination with D-11 at the MICAC concentration [2]: 2.76 µM
- MICAB: MIC of vancomycin in combination with D-11 at the MICAC concentration [3]: 11.04 µM
